Reference: patent US7098012B1, “DNA demethylase, therapeutic and diagnostic uses thereof” (McGill University, priority 1997, dated 2006)
“Also recorded” adds a separate entry of the source.

What was measured:
DNA dMTase [1] = target: DNA dMTase (Homo sapiens, UniProt Q9UBB5); experiment: Volatilization of radioactive methyl residues assay; assay type: biochemical; conditions: imidazole 1 μM to 10 mM; FIG. 16
DNA dMTase [2] = experiment: Demethylation of [mdC32pdG]n substrate (conversion of mdCMP to dCMP) with additives or pretreatment; assay type: biochemical, human; conditions: 500 μM, initial rate conditions, FIG. 2a
Experimental: (A) To assay the conversion of methyl-dCMP (mdCMP) to dCMP we used a previously described method (Szyf et al., 1995). Briefly, α^32P labeled, fully methylated poly[mdC^32PdG]n substrate was prepared as follows. One hundred ng of a double-stranded fully methylated (mdCpdG) oligomer (Pharmacia) were denatured by boiling, which was followed by partial annealing at room temperature. The complementary strand was extended with Klenow fragment (Boehringer Mannheim) using methyl-5-dCTP (mdCTP, 0.1 mM) (Boehringer Mannheim) and […] (100 μCi, 3000 Ci/mmol), and the unincorporated nucleotides were removed by chromatography through a NAP-5 column (Pharmacia). The NAP-5 chromatography was repeated to exclude minor contamination with unincorporated nucleotides. As a control a non-methylated poly[dC^32pdG]n substrate was similarly prepared except that a nonmethylated dCpdG oligomer served as a template and dCTP was used in the extension reaction. The column fractions (30 μl), described in the experimental procedures were incubated with 1 ng of poly[mdC^32pdG]n substrate for 1 hour at 37° C. in a buffer L containing 25% glycerol (v/v) and 5 mM EDTA. […] The digestion products were loaded onto a thin layer chromatography plate (TLC) (Kodak, 13255 Cellulose), separated in a medium containing, 132 ml Isobutyric acid:40 ml water:4 ml ammonia solution, autoradiographed and the intensity of the different spots was determined using a phosphorimager (Fuji, BAS 2000). ^32P labeled substrates and tritium labeled substrates were phosphoimaged using BAS 2000 plate and BAS-TR2040 phosphorimager plate respectively. (B) The second method determined removal of methylated residues from methylated DNA by measuring disappearance of ^3H—CH3 or ^14C—CH3 from the reaction mixture. […] The number of methyl groups that were removed from the DNA by the different fractions was determined by subtracting the remaining counts in each of the fractions from the counts remaining in the control. […]

Sequence of DNA dMTase (Homo sapiens, UniProt Q9UBB5) (Q9UBB5 whole entry): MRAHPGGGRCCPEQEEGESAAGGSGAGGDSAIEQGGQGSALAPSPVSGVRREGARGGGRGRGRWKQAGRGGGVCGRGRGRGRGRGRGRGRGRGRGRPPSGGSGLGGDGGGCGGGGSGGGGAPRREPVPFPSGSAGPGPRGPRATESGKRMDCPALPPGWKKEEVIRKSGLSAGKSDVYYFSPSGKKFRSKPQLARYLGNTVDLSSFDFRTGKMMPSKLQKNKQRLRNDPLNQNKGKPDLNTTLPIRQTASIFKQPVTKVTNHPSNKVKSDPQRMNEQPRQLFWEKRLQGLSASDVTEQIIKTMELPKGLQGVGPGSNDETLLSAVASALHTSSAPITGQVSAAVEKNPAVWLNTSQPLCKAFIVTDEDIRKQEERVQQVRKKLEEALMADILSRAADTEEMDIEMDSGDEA

inhibition of DNA dMTase activity (DNA dMTase [1]) | inhibition of demethylation of the [mdC32pdG]n substrate (DNA dMTase [2]; listed as methyl dCTP) | Compound | inhibition of demethylation of the [mdC32pdG]n substrate (DNA dMTase [2])
dose dependent inhibition | – | c1c[nH]cn1 [imidazole] | –
– | not affected | Cc1cn([C@H]2C[C@H](O)[C@@H](COP(=O)(O)OP(=O)(O)OP(=O)(O)O)O2)c(=O)nc1N [methyl-dCTP, methyl-5-dCTP] | nor is it inhibited
– | – | Nc1ccn([C@H]2CC[C@@H](COP(=O)(O)OP(=O)(O)OP(=O)(O)O)O2)c(=O)n1 [ddCTP] | insensitive; also recorded: does not inhibit
